The values that follow come from publication PMC6560083, “A mechanism to prevent production of reactive oxygen species by Escherichia coli respiratory complex I” (Nature Communications, 2019).

Substitutions are numbered along the chain they refer to. In names and notes the source's numbering stands.

For series [1], the target named is T1, NuoEF of Aquifex aeolicus complex I (Aquifex aeolicus, UniProt O66841).
T1 construct: gene nuoF; electron input subcomplex, NuoE (18 kDa) and NuoF (44 kDa) heterodimer, C-terminal hexahistidine tag on NuoF, expressed in E. coli; with NADH-quinone oxidoreductase subunit E
T1 sequence (O66841 1-426): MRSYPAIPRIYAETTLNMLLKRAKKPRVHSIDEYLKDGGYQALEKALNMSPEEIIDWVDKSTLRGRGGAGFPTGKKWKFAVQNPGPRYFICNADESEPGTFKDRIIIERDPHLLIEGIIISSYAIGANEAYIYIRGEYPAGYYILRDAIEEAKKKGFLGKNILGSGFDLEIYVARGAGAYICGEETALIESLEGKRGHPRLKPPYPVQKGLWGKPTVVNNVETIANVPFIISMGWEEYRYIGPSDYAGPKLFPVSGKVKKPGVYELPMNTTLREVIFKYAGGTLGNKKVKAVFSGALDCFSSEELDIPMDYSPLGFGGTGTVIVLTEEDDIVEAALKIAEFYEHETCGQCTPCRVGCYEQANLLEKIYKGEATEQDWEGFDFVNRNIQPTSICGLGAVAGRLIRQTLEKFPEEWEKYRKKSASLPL
T1 sequence (O66842 1-160 partner): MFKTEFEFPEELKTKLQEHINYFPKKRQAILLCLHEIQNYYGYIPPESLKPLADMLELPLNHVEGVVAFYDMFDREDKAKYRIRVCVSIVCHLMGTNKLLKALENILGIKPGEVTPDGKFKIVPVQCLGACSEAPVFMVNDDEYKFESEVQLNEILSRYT
Briefly: X-ray crystal structure. Type of series: binding. The conditions noted are these: bound cofactor of NuoF, oxidized (6HL2) and dithionite-reduced (6HL4).

The target in series [2] is T2, NuoEF of Aquifex aeolicus complex I (Aquifex aeolicus, UniProt O66841, S96M).
T2 construct: gene nuoF; electron input subcomplex, NuoE (18 kDa) and NuoF (44 kDa) heterodimer, C-terminal hexahistidine tag on NuoF, expressed in E. coli; with NADH-quinone oxidoreductase subunit E
Briefly: X-ray crystal structure, soaked crystals. Type of series: binding.

For series [3], the target named is T1, NuoEF of Aquifex aeolicus complex I. In words: X-ray crystal structure, soaked crystals. Type of series: binding.
For series [4], the target named is T3, NuoEF of Aquifex aeolicus complex I (Aquifex aeolicus, UniProt O66841).
T3 construct: gene nuoF; electron input subcomplex, NuoE (18 kDa) and NuoF (44 kDa) heterodimer, C-terminal hexahistidine tag on NuoF, expressed in E. coli; with NADH-quinone oxidoreductase subunit E
In words: X-ray crystal structure, soaked crystals. Type of series: binding. The conditions noted are these: oxidized; ADP moiety defined, nicotinamide ring and its ribose not seen.
Target sequence in this assay (O66842 whole entry G129D, form open, one chain of several): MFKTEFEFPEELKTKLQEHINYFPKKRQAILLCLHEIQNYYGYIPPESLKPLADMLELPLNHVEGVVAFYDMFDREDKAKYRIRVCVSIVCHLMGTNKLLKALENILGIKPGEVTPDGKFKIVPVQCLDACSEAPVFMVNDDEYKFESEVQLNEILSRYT

For series [5], the target named is T3, NuoEF of Aquifex aeolicus complex I. Briefly: X-ray crystal structure, soaked crystals. Type of series: binding. The conditions noted are these: oxidized.
Target sequence in this assay (O66842 whole entry G129S, form open, one chain of several, further chain): as the sequence (O66842 whole entry G129D, form open, one chain of several) above, with D129S counted along it
Series [6] has as its target T4, Aquifex aeolicus NuoF variant S96M (Aquifex aeolicus, UniProt O66841 1-426, S96M^F).
T4 construct: NuoF of Aquifex aeolicus complex I with S96 exchanged for methionine (the residue at the homologous position of E. coli NuoF); The His tag is told for the original NuoF; the variants were purified in the same way (Ni2+-IDA); also called S96M^F; NuoEF S96M^F; source: overproducing E. coli strain, purified together with NuoE (Source 15Q anion exchange, Ni2+-IDA, size exclusion)
T4 sequence (looked up): T1 sequence (O66841 1-426) with S96M
Briefly: crystal structure; NuoEF subcomplex crystallized at 20 °C by sitting drop vapor diffusion, 0.1 M Tris/HCl, 1.0 M sodium citrate, pH 6.9-7.1; air-oxidized, dithionite- or NADH-reduced, with and without soaked NAD+ or NADH. The conditions noted are these: both partners purified.

In series [7] the target is T5, Aquifex aeolicus complex I subunit NuoF (Aquifex aeolicus, UniProt O66841 1-426).
T5 construct: NuoF, subunit of the NADH:ubiquinone oxidoreductase (complex I) of Aquifex aeolicus; 44 kDa; the model contains 418 amino acids, eight residues at the C-terminus and the following hexahistidine tag not defined; Co-produced and co-purified with NuoE as the subcomplex NuoEF; also called original NuoEF (subunit F); source: overproducing E. coli strain, purified together with NuoE (Source 15Q anion …)
T5 sequence (looked up): T1 sequence (O66841 1-426)
Described as above. The conditions noted are these: both partners purified.

Substrate in the series “purified protein”: NC(=O)C1=CN([C@@H]2O[C@H](COP(=O)(O)OP(=O)(O)OC[C@H]3O[C@@H](n4cnc5c(N)ncnc54)[C@H](O)[C@@H]3O)[C@@H](O)[C@H]2O)C=CC1
In words: purified protein. The class given is biochemical, Escherichia coli. The conditions noted are these: 50 mM MES/NaOH, 50 mM NaCl, pH 6.0, electron acceptor of the Km titration not clearly stated (decyl-ubiquinone or ferricyanide).

T2 sequence (O66841 whole entry S96M, one chain of several): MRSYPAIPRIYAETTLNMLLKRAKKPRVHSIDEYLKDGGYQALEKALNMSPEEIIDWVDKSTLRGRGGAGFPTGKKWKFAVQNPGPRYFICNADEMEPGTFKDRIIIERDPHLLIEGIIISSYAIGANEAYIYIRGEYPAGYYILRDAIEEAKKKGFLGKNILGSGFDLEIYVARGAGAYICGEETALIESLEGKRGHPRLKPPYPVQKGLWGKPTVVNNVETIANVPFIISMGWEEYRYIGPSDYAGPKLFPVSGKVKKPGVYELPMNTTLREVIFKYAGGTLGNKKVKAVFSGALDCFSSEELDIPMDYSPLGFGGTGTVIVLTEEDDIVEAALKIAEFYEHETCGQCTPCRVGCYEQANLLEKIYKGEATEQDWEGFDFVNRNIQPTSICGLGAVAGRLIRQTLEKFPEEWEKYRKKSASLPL

Regarding `Cc1cc2nc3c(=O)[nH]c(=O)nc-3n(C[C@H](O)[C@H](O)[C@H](O)COP(=O)(O)O)c2cc1C` [FMN], in series [1], the X-ray crystal structure result is “Subunit NuoF binds the FMN cofactor as well as cluster N3”.
In the case of `NC(=O)C1=CN([C@@H]2O[C@H](COP(=O)(O)OP(=O)(O)OC[C@H]3O[C@@H](n4cnc5c(N)ncnc54)[C@H](O)[C@@H]3O)[C@@H](O)[C@H]2O)C=CC1` [NADH], the “X-ray crystal structure, soaked crystals” value in series [2] (reduced) was 6Q9K (variant S96M, reduced with NADH); in series [3] (NADH soak, reduced state, 1.8-1.9 Å, nicotinamide in tight position, 6HLA with dithionite plus NADH) it was “crystals of NuoEF were soaked with NAD^+, with NADH and with NADH plus dithionite”.
Take `NC(=O)c1ccc[n+]([C@@H]2O[C@H](COP(=O)(O)OP(=O)(O)OC[C@H]3O[C@@H](n4cnc5c(N)ncnc54)[C@H](O)[C@@H]3O)[C@@H](O)[C@H]2O)c1` [NAD^+]: the “X-ray crystal structure, soaked crystals” value is “the oxidized G129D^E variant was soaked with NAD^+” in series [4]; 6R7P (variant S96M, oxidized with NAD^+) in series [2] (oxidized, 3.22 Å); “crystals of NuoEF were soaked with NAD^+, with NADH and with NADH plus dithionite” in series [3] (oxidized state, 10 mM NAD+ soak, 2.0 Å, loose position, 6HLI: dithionite-reduced, near tight position); 6HLJ (variant G129S, oxidized with NAD^+) in series [5].

B1: Aquifex aeolicus complex I subunit NuoE (natural protein)
chain: T1 sequence (O66842 1-160 partner)
notes: NuoE, subunit of the NADH:ubiquinone oxidoreductase (complex I) of Aquifex aeolicus; 18 kDa; the model comprises 154 amino acids, the first six N-terminal residues not defined (residues up to 160); holds the [2Fe-2S] cluster N1a; Co-produced and co-purified with His-tagged NuoF as the subcomplex NuoEF; also called original NuoEF (subunit E); source: overproducing E. coli strain, purified together …
In the case of B1, the binding result in series [6] and in series [7] was “binds” throughout.

B2: Aquifex aeolicus NuoE variant G129D (natural protein)
chain: T1 sequence (O66842 1-160 partner) with G129D
notes: NuoE of Aquifex aeolicus complex I with G129 exchanged for aspartate; also called G129D^E; Asp-variant of NuoEF; source: E. coli, purified together with NuoF (Source 15Q anion exchange, Ni2+-IDA, size exclusion)
Take B2: the binding result in series [7] is on record as “binds”.

B3: Aquifex aeolicus NuoE variant G129S (natural protein)
chain: T1 sequence (O66842 1-160 partner) with G129S
notes: NuoE of Aquifex aeolicus complex I with G129 exchanged for serine; also called G129S^E; Ser-variant of NuoEF; source: E. coli, purified together with NuoF (Source 15Q anion exchange, Ni2+-IDA, size exclusion)
In the case of B3, the binding result in series [7] is “binds”.

B4: E. coli complex I (Escherichia coli K-12) (protein)
chain: MKNIIRTPETHPLTWRLRDDKQPVWLDEYRSKNGYEGARKALTGLSPDEIVNQVKDAGLKGRGGAGFSTGLKWSLMPKDESMNIRYLLCNADEMEPGTYKDRLLMEQLPHLLVEGMLISAFALKAYRGYIFLRGEYIEAAVNLRRAIAEATEAGLLGKNIMGTGFDFELFVHTGAGRYICGEETALINSLEGRRANPRSKPPFPATSGAWGKPTCVNNVETLCNVPAILANGVEWYQNISKSKDAGTKLMGFSGRVKNPGLWELPFGTTAREILEDYAGGMRDGLKFKAWQPGGAGTDFLTEAHLDLPMEFESIGKAGSRLGTALAMAVDHEINMVSLVRNLEEFFARESCGWCTPCRDGLPWSVKILRALERGEGQPGDIETLEQLCRFLGPGKTFCAHAPGAVEPLQSAIKYFREEFEAGIKQPFSNTHLINGIQPNLLKERW
notes: with NADH-quinone oxidoreductase subunit E; NADH-quinone oxidoreductase subunit G; NADH-quinone oxidoreductase subunit B; NADH-quinone oxidoreductase subunit C/D; NADH-quinone oxidoreductase subunit I; NADH-quinone oxidoreductase subunit A; NADH-quinone oxidoreductase subunit H; NADH-quinone oxidoreductase subunit J; NADH-quinone oxidoreductase subunit K; NADH-quinone oxidoreductase subunit L; …
For orientation: Km means the substrate concentration at which the rate is half of its maximum. Regarding B4, the Km in “purified protein” worked out at 13 ± 1 µM.
